Consider five compounds from patent US10822374B2, “Cancer therapies and diagnostics” (Dana-Farber Cancer Institute, Inc., priority 2010, dated 2020).

Entries after “also recorded” stand apart in the source; their conditions may differ. Like-named read-outs stand apart in the source and are kept apart here. Positions of bridges follow the written chain, without caps; N, C: chain ends. Non-standard residues stand in square brackets, D forms with d. No end group written: not given here. R8 = C=CCCCCCC[C@@](C)(N)C(=O)O; S5 = C=CCCC[C@](C)(N)C(=O)O

Data set [1] addresses T1, HDM2 (Homo sapiens, UniProt Q00987).
T1 construct: endogenous in cells; host or cells: SJSA-X (derivative of SJSA-1 osteosarcoma)
The data set can be described thus: Anti-FITC pull down in SJSA-X cells, HDM2 western. The format is cell-based. The following applies: 15 μM, 12 hours.

Data set [2] concerns the target T2, HDMX (Homo sapiens, UniProt O15151).
T2 construct: expressed in transfected cells; host or cells: SJSA-X (SJSA-1 engineered to overexpress HDMX)
T2 sequence (O15151 1-490): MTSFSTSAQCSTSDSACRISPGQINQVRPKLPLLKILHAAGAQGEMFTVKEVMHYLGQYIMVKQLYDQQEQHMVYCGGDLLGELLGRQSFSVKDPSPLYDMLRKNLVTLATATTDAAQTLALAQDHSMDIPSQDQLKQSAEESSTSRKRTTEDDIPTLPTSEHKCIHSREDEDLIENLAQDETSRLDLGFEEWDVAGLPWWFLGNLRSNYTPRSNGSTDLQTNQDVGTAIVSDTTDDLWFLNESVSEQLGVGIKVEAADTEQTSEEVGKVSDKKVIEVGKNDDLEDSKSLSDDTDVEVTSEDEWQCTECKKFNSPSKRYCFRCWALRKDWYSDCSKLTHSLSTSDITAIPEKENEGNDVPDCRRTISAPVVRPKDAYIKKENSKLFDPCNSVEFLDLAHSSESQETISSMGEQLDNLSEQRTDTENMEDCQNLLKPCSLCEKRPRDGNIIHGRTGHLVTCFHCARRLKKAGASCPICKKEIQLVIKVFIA
The data set can be described thus: Anti-FITC pull down in SJSA-X cells, HDMX western. The following applies: 15 μM, 12 hours. It counts as cell-based.

Data set [3] has as its system SJSA-X cells. The data set can be described thus: FITC-peptide detection in SJSA-X cellular lysates (cell penetration). The settings on record: 12 hours. How it is done: Cells were then lysed and anti-FITC pull down was performed, followed by HDM2 and HDMX western analyses.
Data set [4] deals with JEG-3 xenografts. Briefly: JEG-3 murine xenograft tumor growth. The settings on record: 10 mg/kg i.v. once daily for 4 days.
For data set [5], the system named is p53. Briefly: p53 western of JEG-3 cellular extracts (input). The format is cell-based, human. The settings on record: JEG-3, 20 μM, 6 hours. Here is the method: ; Bethyl Laboratories) and western analysis of electrophoresed protein was conducted using p53 (DO-1; EMD Chemicals or FL-393; Santa Cruz Biotechnology), HDMX (MDMX-82; Abcam), and HAUSP (anti-USP7, Bethyl Labs) antibodies, and Western Lightning chemiluminescence reagent (PerkinElmer). […]

Data set [6] deals with JEG-3 cells. Briefly: CellTiter-Glo viability, JEG-3. The format is cell-based, human. The following applies: JEG-3 (HDM2−/HDMX++), 24 h. Here is the method: (§1) All viability assays were performed in at least triplicate.
For orientation: In ATP-based viability assays light output follows the ATP content of the culture.

For data set [7], the system named is SJSA-X cells. The data set can be described thus: CellTiter-Glo viability, SJSA-X. The format is cell-based, human. The following applies: SJSA-X (HDM2++/HDMX++), 24 h. How it is done:
as §1

Data set [8] concerns JEG-3 cells. Briefly: Caspase-3/7 activation in JEG-3 cells. It counts as cell-based, human. The settings on record: JEG-3, 0.3-10 μM, 12 h. Here is the method: Apoptosis studies were performed as follows.
Data set [9] deals with HCT116 cells. Briefly: CellTiter-Glo viability, HCT116. It counts as cell-based, human. The following applies: HCT116 (HDM2+/HDMX+), 24 h. How it is done:
as §1

The test system of data set [10] is p53 transcriptional targets HDM2, p21, MIC-1. The data set can be described thus: qPCR of p53 transcriptional targets in JEG-3 cells. The following applies: JEG-3, 20 μM, 6 h.
Procedure: qPCR studies were performed as follows. […] Total RNA was reverse transcribed to cDNA using Superscript III reverse transcriptase (Invitrogen). The derived cDNA was employed as the substrate to measure relative transcript levels by qRT-PCR on a PRISM 7700 system using SYBR Green PCR Master Mix (Applied Biosystems). Primers specific for HDM2, p21, MIC-1, and the UBB control were employed. Triplicate reactions were prepared in 96-well optical PCR plates.
Data set [11] concerns WS1 normal human fibroblasts. The data set can be described thus: CellTiter-Glo viability, WS1 fibroblasts. Here is the method: (§2) Finally, WS1 normal human fibroblasts were tested to evaluate relative toxicity in tumor versus non-transformed cells.
(§3) Cultured cells were maintained in the appropriate media (SJSA-1, SJSA-X, SJSA-DD, A431 (DMEM); JEG-3, MCF-7, WS1 (EMEM); HCT116 (McCoy's 5A)) supplemented with fetal calf serum and penicillin/streptomycin. […] Viability was assayed by addition of CellTiter-Glo™ chemiluminescence reagent according to the manufacturer's protocol (Promega). Luminescence was measured using a Spectramax M5 microplate reader (Molecular Devices). […] All viability assays were performed in at least triplicate.

The test system of data set [12] is SJSA-1 cells. Briefly: CellTiter-Glo viability, SJSA-1. It counts as cell-based, human. The following applies: SJSA-1 (HDM2++/HDMX−), 24 h. How it is done:
as §1

For data set [13], the system named is SJSA-DD cells. Briefly: CellTiter-Glo viability, SJSA-DD. The format is cell-based, human. The following applies: SJSA-1 overexpressing dominant negative p53 (SJSA-DD), 24 h. Here is the method: as §2, §3
Data set [14] concerns p53. Briefly: p53 western in MCF-7 cells. The format is cell-based, human. The settings on record: MCF-7, 20 μM. Here is the method:
FIG. 8 is an image of an immunoblot showing that pharmacologic induction of p53-HDMX complexes sensitizes Nutlin-3-resistant cancer cells to HDMX inhibition. […]. Cells were exposed to MG-132 at 10 μM for 6 hours to induce HDMX-p53 complex formation. Cellular extracts (input-left side immunoblot) and anti-HDMX immunoprecipitates (IP:HDMX-right side immunoblot) were analyzed by SDS-PAGE and Western blotting. Levels of p53 and HAUSP are shown.

Data set [15] relates to MCF-7 cells. Briefly: CellTiter-Glo viability, MCF-7. It counts as cell-based, human. The following applies: MCF-7 (HDM2+/HDMX+), 24 h. How it is done: as §1
Data set [16] in a line: Proteolytic stability. It counts as in vitro ADME. The source says: The amide bond of the peptide backbone is susceptible to hydrolysis by proteases, thereby rendering peptidic compounds vulnerable to rapid degradation in vivo. Peptide helix formation, however, typically buries the amide backbone and therefore may shield it from proteolytic cleavage. The peptidomimetic macrocycles of the present invention may be subjected to in vitro trypsin proteolysis to assess for any change in degradation rate compared to a corresponding uncrosslinked polypeptide. For example, the peptidomimetic macrocycle and a corresponding uncrosslinked polypeptide are incubated with trypsin agarose and the reactions quenched at various time points by centrifugation and subsequent HPLC injection to quantitate the residual substrate by ultraviolet absorption at 280 nm. Briefly, the peptidomimetic macrocycle and peptidomimetic precursor (5 mcg) are incubated with trypsin agarose (Pierce) (S/E~125) for 0, 10, 20, 90, and 180 minutes. Reactions are quenched by tabletop centrifugation at high speed; remaining substrate in the isolated supernatant is quantified by HPLC-based peak detection at 280 nm.

The test system of data set [17] is HCT116 cells deficient in p53. Briefly: CellTiter-Glo viability, HCT116 deficient in p53. The format is cell-based, human. The following applies: HCT116 with genetic deletion of p53, 24 h. How it is done:
as §2, §3

Data set [18] deals with RKO or SJSA-1 cancer cells. The data set can be described thus: Cell viability assays, RKO or SJSA-1 cancer cells. The format is cell-based.
The test system of data set [19] is HDM2, p21, and MIC-1. The data set can be described thus: qPCR of p53 targets in excised JEG-3 tumors. The following applies: tumors excised day 5. (In general: In qPCR the cycle at which signal appears reflects the starting amount.)
Data set [20] has as its system bearing the R273H p53 mutation. The data set can be described thus: CellTiter-Glo viability, A431. It counts as cell-based, human. The following applies: A431, inactivating p53 point mutation, 24 h. Here is the method: as §2, §3
Data set [21] has as its target T3, full-length HDMX (Homo sapiens, UniProt O15151).
T3 construct: plasmid encoding full-length HDMX with N-terminal thioredoxin, S, and hexahistidine tags; thioredoxin (N, cleaved yes); S-tag (N, cleaved yes); hexahistidine (N, cleaved yes); made in house; host or cells: Escherichia coli BL21 (DE3) pLysS, pET32-LIC vector
T3 sequence (O15151 1-490): T2 sequence (O15151 1-490)
The data set can be described thus: Fluorescence polarization direct binding to HDMX. The settings on record: FITC-labeled peptides, same dose ranges. How it is done:
Fluorescence polarization was then measured at equilibrium on a SpectraMax M5 microplate reader (Molecular Devices).
For orientation: Fluorescence polarisation rises when a labelled molecule tumbles more slowly, as on binding a larger partner.

T1 sequence (Q00987 whole entry): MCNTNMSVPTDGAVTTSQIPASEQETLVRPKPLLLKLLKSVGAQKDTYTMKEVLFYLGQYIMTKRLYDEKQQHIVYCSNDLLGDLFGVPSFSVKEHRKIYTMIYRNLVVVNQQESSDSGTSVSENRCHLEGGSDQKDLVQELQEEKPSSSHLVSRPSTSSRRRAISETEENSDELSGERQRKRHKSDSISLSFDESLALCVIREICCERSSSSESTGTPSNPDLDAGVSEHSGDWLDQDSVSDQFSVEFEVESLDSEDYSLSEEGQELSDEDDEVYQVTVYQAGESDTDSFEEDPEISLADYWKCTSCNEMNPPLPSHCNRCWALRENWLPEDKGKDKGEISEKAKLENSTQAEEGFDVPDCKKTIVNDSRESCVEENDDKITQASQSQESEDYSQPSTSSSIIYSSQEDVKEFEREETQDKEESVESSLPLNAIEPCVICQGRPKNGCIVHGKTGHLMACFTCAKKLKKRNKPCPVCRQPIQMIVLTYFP

With `CC(C)C[C@@H]1NC(=O)[C@H](CCCNC(=N)N)NC(=O)[C@H](Cc2c[nH]c3ccccc23)NC(=O)[C@H](CC(C)C)NC(=O)[C@H](CC(N)=O)NC(=O)[C@](C)(NC(=O)[C@H](Cc2ccccc2)NC(=O)[C@@H](NC(=O)[C@H](CCC(N)=O)NC(=O)[C@H](CCC(N)=O)NC(=O)[C@H](CO)NC(=O)[C@H](CCC(N)=O)NC(=O)CCNC(=S)Nc2ccc3c(c2)C(=O)OC32c3ccc(O)cc3Oc3cc(O)ccc32)[C@@H](C)O)CCCCCCC=CCCC[C@@](C)(C(=O)N[C@@H](CCC(N)=O)C(=O)N[C@@H](CC(N)=O)C(N)=O)NC(=O)[C@H](CC(C)C)NC1=O` [FITC-SAH-p53-8], in [1], the “co-immunoprecipitation of native HDM2” value was “specifically co-immunoprecipitated”. The “co-immunoprecipitation of native HDMX” value in data set [2] is reported as “specifically co-immunoprecipitated”. Moreover, the “penetration of intact SJSA-X cells” value in data set [3] is listed as “efficiently penetrated intact SJSA-X cells”.

In the case of `COc1ccc(C2=N[C@@H](c3ccc(Cl)cc3)[C@@H](c3ccc(Cl)cc3)N2C(=O)N2CCNC(=O)C2)c(OC(C)C)c1` [Nutlin-3, reference compound], the tumor growth result in data set [4] was “not affected”. For the same compound, the p53 levels result in data set [5] is on record as “increase in p53 levels”; in data set [14], “elevate p53 levels”. The cell viability entry in data set [6] is given as “little to no response; also recorded: most resistant”; in data set [7] it was “little to no response; also recorded: ineffective as a single agent”; in data set [9], “modestly sensitive”; in [12] it was “very sensitive”; in [13] it was “completely insensitive”; in [15], “modestly sensitive”. Moreover, the caspase-3/7 activation result in data set [8] is listed as “little effect”. Also, the “upregulation of p53 transcriptional targets (mRNA) compared to vehicle” value in data set [10] is recorded as 1.5-4 fold. The “viability of normal human fibroblasts” value in [11] (WS1, 24 h) is recorded as “no impact”.

Take `CC(=O)N[C@@H](CC(C)C)C(=O)N[C@@H](CO)C(=O)N[C@@H](CCC(N)=O)C(=O)N[C@@H](CCC(=O)O)C(=O)N[C@H](C(=O)N[C@@H](Cc1ccccc1)C(=O)N[C@]1(C)CCCCCCC=CCCC[C@@](C)(C(=O)N[C@@H](CCC(=O)O)C(=O)N[C@@H](CC(N)=O)C(N)=O)NC(=O)[C@H](CC(C)C)NC(=O)[C@H](CC(C)C)NC(=O)[C@H](CCCCN)NC(=O)[C@H](Cc2c[nH]c3ccccc23)NC(=O)[C@H](CC(C)C)NC(=O)[C@H](CC(=O)O)NC1=O)[C@@H](C)O` [SAH-p53-4]: the proteolytic stability result in [16] was “improved proteolytic stability”.

Turning to “SAH-p53-8: i, i+7 hydrocarbon-stapled p53 transactivation domain peptide (SEQ ID NO: 10), S20 and P27 replaced with olefinic residues”, in data set [4], the tumor growth entry was “significantly suppressed tumor growth”. In data set [4] (5-day evaluation), the “reduction in tumor burden compared to vehicle and Nutlin-3” value was 37-46%. Further, the p53 levels entry in data set [5] was “increase in p53 levels”. Also, the cell viability result in [17] was “completely insensitive”; in data set [6], “dose-dependent inhibition of cell viability; also recorded: most sensitive”; in data set [7] it was “dose-dependent inhibition of cell viability; also recorded: restoring susceptibility”; in [9] it was “dose-dependent inhibition of cell viability”; in data set [12], “dose-dependent inhibition of cell viability”; in data set [18], “promoted cell death”. In addition, the cell viability result in [13] is “completely insensitive”; in data set [20] it was “similarly unaffected”; in [15], “dose-dependent inhibition of cell viability”. In [8], the caspase-3/7 activation entry is “dose-responsive activation of caspase-3/7”. Further, in [10], the “upregulation of p53 transcriptional targets (mRNA) compared to vehicle” value is reported as 5-14 fold. In data set [19], the “transcriptional activation of HDM2, p21, and MIC-1 in tumors” value was “statistically significant transcriptional activation”.

For “SAH-p53-8F19A: negative control peptide: SAH-p53-8 with F19 substituted by alanine (SEQ ID NO: 13) (QSQQTA[R8]NLWRLL[S5]QN; staple 7-14)”, the “interaction with HDMX” value in [21] is listed as “no interaction”. The cell viability entry in data set [17], in data set [6], in data set [7], in [9], in data set [12] and in data set [13] was “inactive” throughout. Moreover, the cell viability entry in data set [20] and in data set [15] was “inactive” each time. Also, the “viability of normal human fibroblasts” value in [11] is “inactive”.
